{"source": "paper PMC7382241", "about": "“Genomic discovery of an evolutionarily programmed modality for small-molecule targeting of an intractable protein surface” (Proceedings of the National Academy of Sciences of the …, 2020)", "biological_target": "T1, FKBP12 (Homo sapiens, UniProt P62942)", "T1 construct": "gene FKBP1A; AVI-tagged FKBP12, E. coli BL21(DE3)pLysS, immobilized on NTA sensor chip", "T1 sequence (P62942 2-108)": "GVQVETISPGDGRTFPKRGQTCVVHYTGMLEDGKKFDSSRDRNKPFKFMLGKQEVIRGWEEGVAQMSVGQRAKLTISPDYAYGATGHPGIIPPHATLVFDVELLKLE", "format": "binding", "conditions": "25 °C; binary complex"}
{"smiles": "C=CC[C@@H]1/C=C(\\C)C[C@H](C)C[C@H](OC)[C@H]2O[C@@](O)(C(=O)C(=O)N3CCCC[C@H]3C(=O)O[C@H](/C(C)=C/[C@@H]3CC[C@@H](O)[C@H](OC)C3)[C@H](C)[C@@H](O)CC1=O)[C@H](C)C[C@@H]2OC", "note": "[FK506]", "values": [{"measurement": "KD", "value": "KD measurements by SPR for WDB001, WDB002, WDB003, WDB011, rapamycin, and FK506"}]}
